# Assay results as given in patent US20240299486A1, “ADDRESSING INJECTION SITE REACTIONS ASSOCIATED WITH THE ADMINISTRATION OF ELAMIPRETIDE” (STEALTH BIOTHERAPEUTICS INC., priority 2022, published 2024).
# How the values were obtained:
# mouse ortholog Mrgprb2 = mouse ortholog Mrgprb2 (Mus musculus, UniProt Q3KNA1); conditions: HEK293 cells transfected with mouse ortholog Mrgprb2
# Description: A clonal HEK293 cell line stably expressing human MRGPRX2 and Galpha15 was used for the assay, which was performed using a fluorescent plate reader. Cells were plated at 40,000 cells per well in a glass-bottom 96 well plate 20 hours before the assay. Cells were loaded with N-[4-[6-[(Acetyloxy)methoxy]-2,7-difluoro-3-oxo-3H-xanthen-9-yl]-2-[2-[2-[bis[2-[(acetyloxy)methoxy]-2-oxoethyl]amino]-5-methylphenoxy]ethoxy]phenyl]-N-[2-[(acetyloxy)methoxy]-2-oxoethyl]glycine (acetyloxy)methyl ester (Fluo-4 AM) for 45 minutes at 37° C. and allowed to rest for 30 minutes before use. Baseline fluorescence was calculated as the average of a 30 second read, with data points taken at 5 second intervals. Response was defined as the maximum signal within 90 seconds after addition of elamipretide, subtracted by the baseline fluorescence signal. Concentrations were tested in duplicate and the assay was run 6 times. The curve was calculated as a four-parameter non-linear fit with variable slope. Traces were obtained using the same cell line and same Fluo-4 AM loading protocol but were imaged using a fluorescence microscope using a standard fluorescein isothiocyanate (FITC) filter. Fluorescence for different cells was calculated using region of interest selections.
# A calcium-based readout of receptor activity was used to determine whether elamipretide activates human MRGPRX2 and its mouse ortholog Mrgprb2. […]
# healthy subjects = test: Phase 1 crossover study: clinically assessed injection site reactions
# Description: (§1) • This Phase 1, open-label, 6-arm crossover study included 10 healthy subjects ≥18 and ≤65 years of age. • All subjects received 60 mg of SQ elamipretide to alternating quadrants of the abdomen on each of 6 occasions (FIG. 3), with or without the interventions listed in Table 2. • For each treatment arm, ISR clinical and self-assessments were performed pre-elamipretide administration and at 0.5, 1, 2, 4, 6, 12, 24, and 48 hours after each elamipretide dose. • Blood samples for plasma concentrations of elamipretide and its metabolites were also collected pre-dose and at 0.25, 0.5, 1, 2, 4, and 6 hours post-elamipretide dose. • Primary endpoints consisted of comparisons of the grading from the clinical assessments and the self-assessments of each ISR parameter following administration of elamipretide with each separate intervention versus that of elamipretide alone. • Secondary endpoints consisted of comparison of various pharmacokinetic (PK) parameters and adverse events following administration of elamipretide with each separate intervention versus that of elamipretide alone.
# After the screening period (up to 28 days) in this phase 1, open-label, 4-week, 6-part, crossover study, all eligible subjects received 60 mg (0.75 mL) of SC elamipretide to alternating quadrants of the abdomen on each of 6 occasions, with or without potential ISR interventions. The first treatment arm (Arm 1) commenced on Day 1 with administration of elamipretide only, followed by the remaining treatment arms (Arms 2-6) with the following potential mitigations: mometasone furoate, 0.1% ointment, applied once under a hydrocolloid occlusive dressing (DuoDERM Extra Thin) 7 days prior to elamipretide administration (Arm 2); ice application at the elamipretide injection site 5 minutes pre- and post-drug administration (Arm 3); tacrolimus 0.1% ointment applied 15 minutes pre-drug dosing (Arm 4); doxepin 5% cream applied 15 minutes pre-elamipretide administration (Arm 5); and diphenhydramine 50 mg orally taken 2 hours prior to administration (Arm 6). For each treatment arm, blood samples for plasma concentrations of elamipretide and its metabolites were collected pre-dose and at 0.25, 0.5, 1, 2, 4, and 6 hours post-elamipretide dose. Vital signs were recorded pre-dose and at 0.5 and 6 hours post-elamipretide administration. ISR clinical and self-assessments were performed pre-elamipretide administration and at 0.5, 1, 2, 4, 6, 12, 24, and 48 hours after each elamipretide dose. Injection sites were photographed at 0.5, 1, 2, 4, and 12 hours post-elamipretide dose.
# The primary endpoints of this study were comprised of the following efficacy measures: clinical assessments and subject self-assessments. Specifically, the primary endpoints consisted of comparisons of the grading of each ISR parameter following administration of elamipretide with each separate intervention versus the grading of each ISR parameter following administration of elamipretide alone. For clinical assessments, the clinical staff used a standard procedure adapted from the Division of Aids Table for Grading the Severity of Adult and Pediatric Adverse Events to score pain, erythema, induration, and pruritus using a 4-point scale based on severity (0=None, 1=Mild, 2=Moderate, 3=Severe, 4=Potentially Life Threatening). The self-assessments were based on a questionnaire to determine how bothered the patient was following each injection of elamipretide and included the following parameters: pain, burning sensation, cold sensation, itching, redness, swelling, and bruising.
# All statistical analyses were performed using SAS GRID Linux/SAS Studio (Version 9.4, or higher). PK parameters for elamipretide and its metabolites, M1 and M2, were summarized using descriptive statistics.
# [1] = Phase 1 crossover study: pharmacokinetics of elamipretide and metabolites M1, M2; conditions: human, in vivo, 60 mg
# Description: as §1
# After the screening period (up to 28 days) in this phase 1, open-label, 4-week, 6-part, crossover study, all eligible subjects received 60 mg (0.75 mL) of SC elamipretide to alternating quadrants of the abdomen on each of 6 occasions, with or without potential ISR interventions. […]
# [2] = SQ elamipretide, multiple-dose trials >8 days, n = 376
# [3] = 60 mg SQ elamipretide with or without the intervention, across all timepoints, all participants, n = 80
# mouse ortholog Mrgprb2, sequence (Q3KNA1 whole entry): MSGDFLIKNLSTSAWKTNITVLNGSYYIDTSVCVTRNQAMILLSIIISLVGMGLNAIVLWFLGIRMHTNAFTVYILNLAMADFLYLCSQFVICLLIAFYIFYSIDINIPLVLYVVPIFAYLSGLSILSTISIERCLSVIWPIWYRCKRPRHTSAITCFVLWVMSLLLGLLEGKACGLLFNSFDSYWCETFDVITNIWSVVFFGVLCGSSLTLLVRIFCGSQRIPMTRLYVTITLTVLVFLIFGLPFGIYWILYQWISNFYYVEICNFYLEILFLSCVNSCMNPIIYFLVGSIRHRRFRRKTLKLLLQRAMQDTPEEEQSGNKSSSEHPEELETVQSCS
smiles,measurement,setting,value
"Cc1cc(O)cc(C)c1C[C@H](NC(=O)[C@H](N)CCCNC(=N)N)C(=O)N[C@@H](CCCCN)C(=O)N[C@@H](Cc1ccccc1)C(N)=O (stereo in doubt) [Elamipretide, H-D-Arg-2′,6′Dmt-Lys-Phe-NH2]",Fluo-4 fluorescence after elamipretide exposure,mouse ortholog Mrgprb2,increased
same,"Injection site bruising, (%) of Subjects",subjects; [2],(12.0) %
same,"Injection site bruising, Number of Subjects",subjects; [2],45
same,"Injection site erythema, (%) of Subjects",subjects; [2],(47.3) %
same,"Injection site erythema, Number of Subjects",subjects; [2],178
same,"Injection site haemorrhage, (%) of Subjects",subjects; [2],(5.9) %
same,"Injection site haemorrhage, Number of Subjects",subjects; [2],22
same,"Injection site induration, (%) of Subjects",subjects; [2],(19.4) %
same,"Injection site induration, Number of Subjects",subjects; [2],73
same,"Injection site mass, (%) of Subjects",subjects; [2],(5.6) %
same,"Injection site mass, Number of Subjects",subjects; [2],21
same,"Injection site pain, (%) of Subjects",subjects; [2],(22.3) %
same,"Injection site pain, Number of Subjects",subjects; [2],84
same,"Injection site pruritus, (%) of Subjects",subjects; [2],(44.7) %
same,"Injection site pruritus, Number of Subjects",subjects; [2],168
same,"Injection site swelling, (%) of Subjects",subjects; [2],(13.8) %
same,"Injection site swelling, Number of Subjects",subjects; [2],52
same,"Injection site urticaria, (%) of Subjects",subjects; [2],(12.5) %
same,"Injection site urticaria, Number of Subjects",subjects; [2],47
same,"injection site reactions (ISRs) reported, % of subjects",subjects; subjects receiving SQ elamipretide through clinical trials,84.4%
same,"Clinically assessed Erythema or redness, (%) of Reported Reactions",healthy subjects; [3],(26.3) %
same,"Clinically assessed Erythema or redness, Number of Reported Reactions",healthy subjects; [3],21
same,"Clinically assessed Induration or swelling, (%) of Reported Reactions",healthy subjects; [3],(20.0) %
same,"Clinically assessed Induration or swelling, Number of Reported Reactions",healthy subjects; [3],16
same,"Clinically assessed Pain or tenderness, (%) of Reported Reactions",healthy subjects; [3],(11.3) %
same,"Clinically assessed Pain or tenderness, Number of Reported Reactions",healthy subjects; [3],9
same,"Clinically assessed Pruritis, (%) of Reported Reactions",healthy subjects; [3],(17.5) %
same,"Clinically assessed Pruritis, Number of Reported Reactions",healthy subjects; [3],14
same,time post-dose after which bruising appeared to form,"healthy subjects; injection site photographs, in those affected",> 12 h
same,time post-dose at which ISRs captured on the photographs were resolving,"healthy subjects; injection site photographs, with the exception of bruising",4 h
same,Tmax,[1],30 min
